Data published in ChEMBL document CHEMBL1128963, “A non-peptide ligand for the somatostatin receptor having a benzodiazepinone structure” (Bioorg Med Chem Lett, 1996).

Each compound was assayed against Somatostatin receptor (assay: Compound was tested for its inhibitory effect against somatostatin receptor in rat cortex membrane using [125I]Tyr3-octreotide as the radioligand).
Assay type: cell membranes

| IC50 | Log Ki | SMILES |
| --- | --- | --- |
| 7 µM | -5.1 | NCCCCCN1C(=O)C(Cc2c[nH]c3ccccc23)N(C(=O)c2ccccc2)Cc2ccccc21 (stereo in doubt; 2) |
| 8.2 µM | – | NCCCCCN1C(=O)C(Cc2c[nH]c3ccccc23)N(C(=O)c2ccccc2)Cc2ccccc21 (stereo in doubt; (+)2) |
| 6.5 µM | -5.2 | NCCCCCN1C(=O)C(Cc2c[nH]c3ccccc23)N(C(=O)c2ccccc2)Cc2ccccc21 (single isomer, unassigned; (-)) |

| SMILES | IC50 | Log Ki |
| --- | --- | --- |
| C[C@H](N)C(=O)NCC(=O)N[C@@H]1CSSC[C@@H](C(=O)O)NC(=O)[C@H](CO)NC(=O)[C@@H]([C@@H](C)O)NC(=O)[C@H](Cc2ccccc2)NC(=O)[C@@H]([C@@H](C)O)NC(=O)[C@H](CCCCN)NC(=O)[C@H](Cc2c[nH]c3ccccc23)NC(=O)[C@H](Cc2ccccc2)NC(=O)[C@@H](Cc2ccccc2)NC(=O)[C@H](CC(N)=O)NC(=O)[C@@H](CCCCN)NC1=O [SOMATOSTATIN RECEPTOR LIGAND] | 0.00043 µM | – |
